Active and inactive are the calls of the source. The calls are words filed in the database; no cut-off is given here.
Tested on: DNA
Assay: Binding affinity to calf thymus DNA at pH 7 by thermal denaturation assay
Format: nucleic-acid assay
Conditions: Bos taurus

ΔTm	Activity	SMILES
8 °C	–	O=C(CN1CCCNCCNCCCNCC1)N[C@@H](COCc1ccccc1)C(=O)O
–	Active	O=C(CN1CCCNCCNCCCNCC1)N[C@@H](Cc1ccccc1)C(=O)O
–	Active	C[C@H](NC(=O)CN1CCCNCCNCCCNCC1)C(=O)O
